Reference: article PMC5318439, “The Novel Toll-Like Receptor 2 Agonist SUP3 Enhances Antigen Presentation and T Cell Activation by Dendritic Cells” (Frontiers in Immunology, 2017)
Where a SMILES comes first, the peptide text is derived from it. The star is where a group is joined. X1 = CCCCCCCCCCCCCCNC(=O)OC[C@H](C*)OC(=O)NCCCCCCCCCCCCCC; Palmitoyl = CCCCCCCCCCCCCCCC(=O)*

Experiments:
[1] = tested on: OVA-expressing B16 melanoma cells (B16-OVA); experiment: B16-OVA melanoma lung metastasis tumor model after immunization; assay type: in vivo, mice; conditions: immunized OCS + 2 nmol per mouse for 30 days, B16-OVA 5 × 10^5 cells i.v., 16 days after challenge; vs OCS alone or OCS with Pam3
From the text: Tumor model was applied as previously described with some modifications ([42]). Briefly, mice were immunized by OCS alone, OCS with Pam3 (2 nmol per mouse), or OCS with SUP3 (2 nmol per mouse) for 30 days. Then mice were i.v. injected with OVA-expressing B16 melanoma cells (B16-OVA) (5 × 10^5 cells per mouse). After 16 days, the numbers of metastatic tumors in lung were counted.
Figure 2 SUP3 induced more vigorous cytotoxic T lymphocytes (CTLs) responses than Pam3CSK4 without excessive production of inflammatory cytokines in vivo. […] The percentages of pentamer positive cells (CD19^− CD3^+ CD8^+ SIINFEKL/H-2Kb-Pentamer^+) in spleens, i.e., the OVA-specific CD8^+ T cells, were determined by flow cytometry (A) and the statistic calculation is presented in (B). […] (C,D) Mice were immunized as in (A) for 30 days, then inoculated with OVA-expressing B16 melanoma cells (B16-OVA) (5 × 10^5 cells per mouse) by i.v. injection and analyzed for metastatic tumor formation in the lung 16 days after inoculation. […] (E) Mice were i.v. injected with SUP3 (2 nmol per mouse), Pam3 (2 nmol per mouse), or lipopolysaccharide (LPS) (1 µg per mouse) for 1 h, the serum was collected, and the levels of different cytokines were determined by ELISA. “n.d.” indicates “not detected.” *p < 0.05, **p < 0.01. […]

[2] = TD antigen (NP-KLH) immunization and antibody titer analysis; assay type: in vivo, mice; conditions: NP-KLH 5 µg per mouse i.p. with 2 nmol per mouse; serum ELISA weekly; vs Pam3
Experimental: Thymus-dependent antigen immunization and antibody titer analysis were performed as previously described ([43]). Briefly, wild-type (WT) mice were immunized by i.p. injection of TD antigen nitrophenyl-keyhole limpet hemocyanin (NP-KLH, 5 µg per mouse; Biosearch Technologies N-5060) alone, or mixed with SUP3 (2 nmol per mouse), Pam3 (2 nmol per mouse), or alum (3 µg per mouse; Thermo 77161). Serum was harvested every week, and nitrophenyl-specific IgM and IgG were determined by ELISA. IgM and total IgG were captured by nitrophenyl 30mer (Biosearch Technologies N-5050H), and high affinity IgG was captured by nitrophenyl 8mer (Biosearch Technologies N-5050L) pre-coated ELISA plates (Corning 9018).
Figure 5 SUP3 enhanced antigen presentation ability of CD11b^+ conventional dendritic cells (cDCs) and production of antibodies against thymus-dependent (TD) antigens. […] Three days after immunization, division of OT-II CD4^+ T cells from inguinal lymph nodes were analyzed by flow cytometry (B). Absolute numbers of proliferated OT-II CD4^+ T cells were calculated in (C). […] Cells were then thoroughly washed and cocultured with CFSE-stained OT-II CD4^+ T cells for 4 days and analyzed by flow cytometry. (D) The division of OT-II cells was measured by reduced level of CFSE-labeling. (E) Absolute numbers of proliferated T cells from (D) were calculated. […]

**Q.** Which “number of metastatic tumors in the lungs” value [1] does the source give for `CCCCCCCCCCCCCCCC(=O)N[C@@H](CSC[C@@H](COC(=O)NCCCCCCCCCCCCCC)OC(=O)NCCCCCCCCCCCCCC)C(=O)NCC(=O)N[C@@H](CCCCN)C(=O)N[C@@H](CCCCN)C(=O)N[C@@H](CCCCN)C(=O)O` [SUP3, (2S,5S,8S,14R,18R)-2,5,8-tris(4-aminobutyl)-4,7,10,13,21-pentaoxo-14-palmitamido-18-((tetradecylcarbamoyl)oxy)-20-oxa-16-thia-3,6,9,12,22-pentaazahexatriacontan-1-oic acid] (Palmitoyl-C(X1)GKKK-OH) here?
**A.** markedly reduced number of tumors in the lungs

**Q.** What about the “titers of TD antigen-specific antibodies (IgM, total IgG, high affinity IgG)” value [2] of the same compound?
**A.** higher titers
